Laboratory results as given in patent publication US9751842B2, “Phthalazine derivatives” (Merck Patent GmbH, priority 2013, dated 2017).

Legend:
Format in all cases: biochemical
[1] = molecular target: T1, GST-tagged Tnks-1 (1023-1327 aa) (Homo sapiens, UniProt O95271); assay: TNKS1 activity ELISA (autoparsylation); conditions: activity ELISA, 1 hour at 30° C; read-out: IC50 TNKS1 ELISA
T1 construct: GST-tagged Tnks-1 (1023-1327 aa, prepared in-house); made in house
Protocol: (§1) Description of the TNKS1 and TNKS2 ELISA Assay
(§2) Biochemical Activity Testing of TNKS 1 and 2: Activity ELISA (Autoparsylation Assay)
(§3) For analysis of autoparsylation activity of TNKS 1 and 2 an activity ELISA is performed: In the first step GST tagged TNKS is captured on a Glutathione coated plate. Then the activity assay with biotinylated NAD is performed in the absence/presence of the compounds. During the enzymatic reaction GST tagged TNKS transfers biotinylated ADP-ribose to itself from biotinylated NAD as co-substrate. For the detection streptavidin-HRP conjugate is added that binds to the biotinylated TNKS and is thereby captured to the plates. The amount of biotinylated resp. autoparsylated TNKS is detected with a luminescence substrate for HRP. The level of the luminescence signal correlates directly with the amount of autoparsylated TNKS and therefore with activity of TNKS.
(§4) The activity ELISA is performed in 384 well Glutathione coated microtiter plates (Express capture Glutathione coated plate, Biocat, Heidelberg, Germany). The plates are pre-equilibrated with PBS. Then the plates are incubated with 50 μl 20 ng/well GST-tagged Tnks-1 (1023-1327 aa, prepared in-house), respectively GST-tagged Tnks-2 (873-1166 aa, prepared in-house) in assay buffer (50 mM HEPES, 4 mM Mg-chloride, 0.05% Pluronic F-68, 2 mM DTT, pH 7.7) overnight at 4° C. The plates are washed 3 times with PBS-Tween-20. The wells are blocked by incubation at room temperature for 20 minutes with 50 μl blocking buffer (PBS, 0.05% Tween-20, 0.5% BSA). Afterwards the plates are washed 3 times with PBS-Tween-20. The enzymatic reaction is performed in 50 μl reaction solution (50 mM HEPES, 4 mM Mg-chloride, 0.05% Pluronic F-68, 1.4 mM DTT, 0.5% DMSO, pH 7.7) with 10 μM bio-NAD (Biolog, Life science Inst., Bremen, Germany) as co-substrate in the absence or presence of the test compound (10 dilution concentrations) for 1 hour at 30° C. The reaction is stopped by 3 times washing with PBS-Tween-20. For the detection 50 μl of 20 ng/μl Streptavidin, HRP conjugate (MoBiTec, Göttingen, Germany) in PBS/0.05% Tween-20/0.01% BSA are added and the plates are incubated for 30 minutes at room temperature. After three times washing with PBS-Tween-20 50 μl of SuperSignal ELISA Femto Maximum sensitivity substrate solution (ThermoFisherScientific (Pierce), Bonn, Germany) are added. Following a 1 minute incubation at room temperature luminescence signals are measured with an Envision multimode reader (Perkin Elmer LAS Germany GmbH) at 700 nm. The full value used is the inhibitor-free reaction. The pharmacological zero value used is XAV-939 (Tocris) in a final concentration of 5 μM. The inhibitory values (IC50) are determined using either the program Symyx Assay Explorer® or Condosseo® from GeneData.

[2] = molecular target: T2, GST-tagged Tankyrase-1 (1023-1327 aa) (Homo sapiens, UniProt O95271); assay: Tankyrase 1 autoparsylation HTRF enzyme assay; conditions: HTRF autoparsylation, 90 min at 30° C; read-out: IC50 TNKS1 enzyme assay
T2 construct: GST-tagged Tankyrase-1 (1023-1327 aa)
T2 sequence (O95271 1023-1327): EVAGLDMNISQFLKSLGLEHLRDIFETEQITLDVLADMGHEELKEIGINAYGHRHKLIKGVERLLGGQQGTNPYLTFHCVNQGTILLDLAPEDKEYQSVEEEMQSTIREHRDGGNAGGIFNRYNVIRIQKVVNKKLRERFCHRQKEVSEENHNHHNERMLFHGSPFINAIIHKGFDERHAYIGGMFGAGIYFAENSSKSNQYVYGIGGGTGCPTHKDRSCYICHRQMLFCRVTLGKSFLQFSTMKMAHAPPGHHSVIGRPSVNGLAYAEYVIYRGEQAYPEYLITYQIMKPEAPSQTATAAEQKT
Protocol: (§5) Biochemical Activity Testing of Tankyrase 1 and 2: Autoparsylation Assay
(§6) The autoparsylation assay is run in two steps: the enzymatic reaction in which GST-tagged Tankyrase-1, resp Tankyrase-2 transferred biotinylated ADP-ribose to itself from biotinylated NAD as co-substrate and the detection reaction where a time resolved FRET between cryptate labelled anti-GST bound to the GST tag of the enzyme and Xlent® labelled-streptavidin bound the biotin-parsylation residue is analysed. The autoparsylation activity was detectable directly via the increase in HTRF signal.
(§7) The autoparsylation assay is performed as 384-well HTRF® (Cisbio, Codolet, France) assay format in Greiner low volume nb 384-well microtiter plates and is used for high throughput screen. 250 nM GST-tagged Tankyrase-1 (1023-1327 aa), respectively about 250 nM GST-tagged Tankyrase-2 (873-1166 aa) and 5 μM bio-NAD (Biolog, Life science Inst., Bremen, Germany) as co-substrate are incubated in a total volume of 5 μl (50 mM HEPES, 4 mM Mg-chloride, 0.05% Pluronic F-68, 1.4 mM DTT, 0.5% DMSO, pH 7.7) in the absence or presence of the test compound (10 dilution concentrations) for 90 min at 30° C. The reaction is stopped by the addition of 1 μl 50 mM EDTA solution. 2 μl of the detection solution (1.6 μM SA-Xlent® (Cisbio, Codolet, France), 7.4 nM Anti-GST-K® (Eu-labelled anti-GST, Cisbio, Codolet, France) in 50 mM HEPES, 800 mM KF, 0.1° A. BSA, 20 mM EDTA, 0.1% CHAPS, pH 7.0) are added. After 1 h incubation at room temperature the HTRF is measured with an Envision multimode reader (Perkin Elmer LAS Germany GmbH) at excitation wavelength 340 nm (laser mode) and emission wavelengths 615 nm and 665 nm. The ratio of the emission signals is determined. The full value used is the inhibitor-free reaction. The pharmacological zero value used is XAV-939 (Tocris) in a final concentration of 5 μM. The inhibitory values (IC50) are determined using either the program Symyx Assay Explorer® or Condosseo® from GeneData.

[3] = molecular target: T3, GST-tagged Tankyrase-2 (873-1166 aa) (Homo sapiens, UniProt Q9H2K2); assay: Tankyrase 2 autoparsylation HTRF enzyme assay; conditions: HTRF autoparsylation, 90 min at 30° C; read-out: IC50 TNKS2 enzyme assay
T3 construct: GST-tagged Tankyrase-2 (873-1166 aa)
T3 sequence (Q9H2K2 873-1166): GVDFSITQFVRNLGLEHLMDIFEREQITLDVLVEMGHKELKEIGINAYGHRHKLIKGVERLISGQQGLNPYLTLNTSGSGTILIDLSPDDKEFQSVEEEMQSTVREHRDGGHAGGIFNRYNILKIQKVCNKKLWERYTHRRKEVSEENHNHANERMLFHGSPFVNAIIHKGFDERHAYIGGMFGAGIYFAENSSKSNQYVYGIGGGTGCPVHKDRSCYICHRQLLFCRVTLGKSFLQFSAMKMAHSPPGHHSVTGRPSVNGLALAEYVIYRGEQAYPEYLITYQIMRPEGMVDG
Protocol: as §5, §6, §7

[4] = molecular target: T4, GST-tagged Tnks-2 (873-1166 aa) (Homo sapiens, UniProt Q9H2K2); assay: TNKS2 activity ELISA (autoparsylation); conditions: activity ELISA, 1 hour at 30° C; read-out: IC50 TNKS2 ELISA
T4 construct: GST-tagged Tnks-2 (873-1166 aa, prepared in-house); made in house
T4 sequence (Q9H2K2 873-1166): as above
Protocol: as §1, §2, §3, §4

T1 sequence (O95271 1023-1327): as the sequence (O95271 1023-1327) above

SMILES	IC50 [1]	IC50 [2]	IC50 [3]	IC50 [4]
O=C(CCC1CCCC1)Nc1nncc2ccccc12 [Compound A15, 3-cyclopentyl-N-phthalazin-1-yl-propionamide]	< 300 nM	< 300 nM	< 300 nM	< 300 nM
O=C(CCc1ccccc1Cl)Nc1nncc2ccccc12 [Compound A16, 3-(2-chloro-phenyl)-N-phthalazin-1-yl-propionamide]	< 300 nM	< 300 nM	< 300 nM	< 300 nM
Cc1cccc2cnnc(NC(=O)Cc3ccccc3)c12 [Compound A18, N-(8-methyl-phthalazin-1-yl)-2-phenyl-acetamide]	< 300 nM	300 to 3000 nM	300 to 3000 nM	< 300 nM
COc1ccc(CC(=O)Nc2nncc3cccc(C)c23)cc1 [Compound A20, 2-(4-methoxy-phenyl)-N-(8-methyl-phthalazin-1-yl)-acetamide]	< 300 nM	300 to 3000 nM	300 to 3000 nM	< 300 nM

Now from value to molecule:

IC50 [1]	IC50 [2]	IC50 [3]	IC50 [4]	SMILES
< 300 nM	< 300 nM	300 to 3000 nM	300 to 3000 nM	O=C(Cc1ccccc1)Nc1nncc2ccccc12 [Compound A1, 2-phenyl-N-phthalazin-1-yl-acetamide]
300 to 3000 nM	300 to 3000 nM	300 to 3000 nM	300 to 3000 nM	COc1cccc(CC(=O)Nc2nncc3ccccc23)c1 [Compound A2, 2-(3-methoxyphenyl)-N-phthalazin-1-yl-acetamide]
< 300 nM	< 300 nM	300 to 3000 nM	< 300 nM	COc1ccc(CC(=O)Nc2nncc3ccccc23)cc1 [Compound A3, 2-(4-methoxyphenyl)-N-phthalazin-1-yl-acetamide]
< 300 nM	< 300 nM	300 to 3000 nM	< 300 nM	CCOc1ccc(CC(=O)Nc2nncc3ccccc23)cc1 [Compound A4, 2-(4-ethoxyphenyl)-N-phthalazin-1-yl-acetamide]
